# According to US11987588B2, “Modulators of the beta-3 adrenergic receptor useful for the treatment or prevention of heart failure and disorders related thereto” (Arena Pharmaceuticals, Inc., priority 2017, dated 2024):
# Biological target: Beta-3 Adrenergic Receptor (Homo sapiens (Human), UniProt P13945)
# Assay: Homogeneous Time-Resolved Fluorescence (HTRF) cAMP antagonist assay, IC50 determination
# Assay type: cell-based
# Settings: CHO-K1 cells stably expressing recombinant receptor, isoproterenol at EC90
# Method in brief: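 In this functional readout, recombinant CHO-K1 cells received compound, then isoproterenol at its EC90. After 1 h at room temperature, cAMP levels were determined by HTRF using an on-plate standard curve, and IC50 values were fitted.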
# Sequence of Beta-3 Adrenergic Receptor (P13945 whole entry, species assumed): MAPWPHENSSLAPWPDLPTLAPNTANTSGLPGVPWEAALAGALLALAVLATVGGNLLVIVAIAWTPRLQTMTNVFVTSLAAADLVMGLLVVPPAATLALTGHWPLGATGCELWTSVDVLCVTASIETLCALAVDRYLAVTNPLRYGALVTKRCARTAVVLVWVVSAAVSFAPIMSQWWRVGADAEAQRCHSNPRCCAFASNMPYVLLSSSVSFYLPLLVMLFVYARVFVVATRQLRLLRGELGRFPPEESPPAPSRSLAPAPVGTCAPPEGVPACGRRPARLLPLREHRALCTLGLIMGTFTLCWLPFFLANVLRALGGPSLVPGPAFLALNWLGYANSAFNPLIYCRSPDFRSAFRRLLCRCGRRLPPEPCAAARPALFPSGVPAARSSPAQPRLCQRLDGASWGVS
row,SMILES,IC50 [nM]
1,"COCCNS(=O)(=O)c1cccc(OC[C@@H](O)CN[C@H]2COC3(CCN(S(=O)(=O)c4cnc5c(c4)N(C)CCO5)CC3)C2)c1 [Compound 459, 3-((S)-2-hydroxy-3-((R)-8-(1-methyl-2,3-dihydro-1H-pyrido[2,3-b][1,4]oxazin-7-ylsulfonyl)-1-oxa-8-azaspiro[4.5]decan-3-ylamino)propoxy)-N-(2-methoxyethyl)benzenesulfonamide]",160
2,"CNS(=O)(=O)c1cccc(OC[C@@H](O)CN[C@H]2COC3(CCN(S(=O)(=O)c4cnc5c(c4)[nH]c(=O)n5C)CC3)C2)c1 [Compound 518, 3-((S)-2-hydroxy-3-((R)-8-(3-methyl-2-oxo-2,3-dihydro-1H-imidazo[4,5-b]pyridin-6-ylsulfonyl)-1-oxa-8-azaspiro[4.5]decan-3-ylamino)propoxy)-N-methylbenzenesulfonamide]",133
3,"CCc1cnc(N2CCC3(CC2)C[C@@H](NC[C@H](O)COc2cccc(S(=O)(=O)NC)c2)CO3)nc1 [Compound 571, 3-((S)-3-((R)-8-(5-ethylpyrimidin-2-yl)-1-oxa-8-azaspiro[4.5]decan-3-ylamino)-2-hydroxypropoxy)-N-methylbenzenesulfonamide]",237
4,"CCNCc1ccc(-c2cccc(S(=O)(=O)N3CCC4(CC3)CC(NC[C@H](O)COc3cccc(S(=O)(=O)NC)c3)CO4)c2)cc1 (stereo partly drawn) [Compound 302, 3-((2S)-3-(8-(4′-((ethylamino)methyl)biphenyl-3-ylsulfonyl)-1-oxa-8-azaspiro[4.5]decan-3-ylamino)-2-hydroxypropoxy)-N-methylbenzenesulfonamide]",458
5,"CONS(=O)(=O)c1cccc(OC[C@@H](O)CN[C@H]2COC3(CCN(S(=O)(=O)c4cnc5c(c4)N(C)CCO5)CC3)C2)c1 [Compound 451, 3-((S)-2-hydroxy-3-((R)-8-(1-methyl-2,3-dihydro-1H-pyrido[2,3-b][1,4]oxazin-7-ylsulfonyl)-1-oxa-8-azaspiro[4.5]decan-3-ylamino)propoxy)-N-methoxybenzenesulfonamide]",2130
6,"CN1CCOc2ncc(S(=O)(=O)N3CCC4(CC3)C[C@@H](NC[C@H](O)COc3cccc(S(=O)(=O)NCC#N)c3)CO4)cc21 [Compound 460, N-(cyanomethyl)-3-((S)-2-hydroxy-3-((R)-8-(1-methyl-2,3-dihydro-1H-pyrido[2,3-b][1,4]oxazin-7-ylsulfonyl)-1-oxa-8-azaspiro[4.5]decan-3-ylamino)propoxy)benzenesulfonamide]",3020
7,"CNS(=O)(=O)c1cccc(OC[C@@H](O)CNC2COC3(CCN(S(=O)(=O)c4ccccc4-c4ccccc4)CC3)C2)c1 (stereo partly drawn) [Compound 174, 3-((2S)-3-(8-(biphenyl-2-ylsulfonyl)-1-oxa-8-azaspiro[4.5]decan-3-ylamino)-2-hydroxypropoxy)-N-methylbenzenesulfonamide]",125
8,"CCCCCNS(=O)(=O)c1cccc(OC[C@@H](O)CNC2COC3(CCN(S(=O)(=O)c4ccc5ccccc5c4)CC3)C2)c1 (stereo partly drawn) [Compound 3, 3-((2S)-2-hydroxy-3-(8-(naphthalen-2-ylsulfonyl)-1-oxa-8-azaspiro[4.5]decan-3-ylamino)propoxy)-N-pentylbenzenesulfonamide]",133
9,"CNS(=O)(=O)c1cccc(OC[C@@H](O)CNC2COC3(CCN(S(=O)(=O)c4cccc(-c5ccc(CN6CCSC6)cc5)c4)CC3)C2)c1 (stereo partly drawn) [Compound 346, 3-((2S)-2-hydroxy-3-(8-(4′-(thiazolidin-3-ylmethyl)biphenyl-3-ylsulfonyl)-1-oxa-8-azaspiro[4.5]decan-3-ylamino)propoxy)-N-methylbenzenesulfonamide]",126
10,"CNS(=O)(=O)c1cccc(OC[C@@H](O)CN[C@H]2COC3(CCN(S(=O)(=O)c4ccc5c(c4)C(=O)C(=O)N5)CC3)C2)c1 [Compound 498, 3-((S)-3-((R)-8-(2,3-dioxoindolin-5-ylsulfonyl)-1-oxa-8-azaspiro[4.5]decan-3-ylamino)-2-hydroxypropoxy)-N-methylbenzenesulfonamide]",117
11,"CNS(=O)(=O)c1cccc(OC[C@@H](O)CNC2COC3(CCN(S(=O)(=O)c4ccc(OC)c(C)c4C)CC3)C2)c1 (stereo partly drawn) [Compound 242, 3-((2S)-2-hydroxy-3-(8-(4-methoxy-2,3-dimethylphenylsulfonyl)-1-oxa-8-azaspiro[4.5]decan-3-ylamino)propoxy)-N-methylbenzenesulfonamide]",420
12,"Cc1ccc(F)c(S(=O)(=O)N2CCC3(CC2)CC(NC[C@H](O)COc2cccc(S(=O)(=O)NCCCN(C)C)c2)CO3)c1 (stereo partly drawn) [Compound 309, N-(3-(dimethylamino)propyl)-3-((2S)-3-(8-(2-fluoro-5-methylphenylsulfonyl)-1-oxa-8-azaspiro[4.5]decan-3-ylamino)-2-hydroxypropoxy)benzenesulfonamide]",3000
13,"CNS(=O)(=O)c1cccc(OC[C@@H](O)CNC2COC3(CCN(S(=O)(=O)c4cnc(O)nc4)CC3)C2)c1 (stereo partly drawn) [Compound 425, 3-((2S)-2-hydroxy-3-(8-(2-hydroxypyrimidin-5-ylsulfonyl)-1-oxa-8-azaspiro[4.5]decan-3-ylamino)propoxy)-N-methylbenzenesulfonamide]",216

# Compounds with a lower IC50, results first:
row,IC50 [nM],SMILES
1,42.7,"CNS(=O)(=O)c1cccc(OC[C@@H](O)CN[C@H]2COC3(CCN(S(=O)(=O)c4ccc5ncccc5c4)CC3)C2)c1 [Compound 344, 3-((S)-2-hydroxy-3-((R)-8-(quinolin-6-ylsulfonyl)-1-oxa-8-azaspiro[4.5]decan-3-ylamino)propoxy)-N-methylbenzenesulfonamide]"
2,37.3,"CNS(=O)(=O)c1cccc(OC[C@@H](O)CN[C@H]2COC3(CCN(S(=O)(=O)c4cnc5[nH]ncc5c4)CC3)C2)c1 [Compound 490, 3-((S)-3-((R)-8-(1H-pyrazolo[3,4-b]pyridin-5-ylsulfonyl)-1-oxa-8-azaspiro[4.5]decan-3-ylamino)-2-hydroxypropoxy)-N-methylbenzenesulfonamide]"
3,11.9,"CNS(=O)(=O)c1cccc(OC[C@@H](O)CN[C@@H]2COC3(CCN(S(=O)(=O)c4cccc(-c5ccc(C6(N)CC6)cc5)c4)CC3)C2)c1 [Compound 446, 3-((S)-3-((S)-8-(4′-(1-aminocyclopropyl)biphenyl-3-ylsulfonyl)-1-oxa-8-azaspiro[4.5]decan-3-ylamino)-2-hydroxypropoxy)-N-methylbenzenesulfonamide]"
4,24.4,"CNS(=O)(=O)c1cccc(OC[C@@H](O)CN[C@H]2COC3(CCN(S(=O)(=O)c4cnc5c(c4)CCC5)CC3)C2)c1 [Compound 491, 3-((S)-3-((R)-8-(6,7-dihydro-5H-cyclopenta[b]pyridin-3-ylsulfonyl)-1-oxa-8-azaspiro[4.5]decan-3-ylamino)-2-hydroxypropoxy)-N-methylbenzenesulfonamide]"
5,39.7,"CNS(=O)(=O)c1cccc(OC[C@@H](O)CNC2COC3(CCN(S(=O)(=O)c4ccsc4)CC3)C2)c1 (stereo partly drawn) [Compound 196, 3-((2S)-2-hydroxy-3-(8-(thiophen-3-ylsulfonyl)-1-oxa-8-azaspiro[4.5]decan-3-ylamino)propoxy)-N-methylbenzenesulfonamide]"
6,20.5,"CNS(=O)(=O)c1cccc(OC[C@@H](O)CN[C@@H]2COC3(CCN(S(=O)(=O)c4cccc(-c5ccc(CNCC(C)C)cc5)c4)CC3)C2)c1 [Compound 360, 3-((S)-2-hydroxy-3-((S)-8-(4′-((isobutylamino)methyl)biphenyl-3-ylsulfonyl)-1-oxa-8-azaspiro[4.5]decan-3-ylamino)propoxy)-N-methylbenzenesulfonamide]"
7,52.6,"CCNS(=O)(=O)c1cccc(OC[C@@H](O)CNC2COC3(CCN(S(=O)(=O)c4ccc5c(c4)N(C)CCO5)CC3)C2)c1 (stereo partly drawn) [Compound 234, N-ethyl-3-((2S)-2-hydroxy-3-(8-(4-methyl-3,4-dihydro-2H-benzo[b][1,4]oxazin-6-ylsulfonyl)-1-oxa-8-azaspiro[4.5]decan-3-ylamino)propoxy)benzenesulfonamide]"
8,65.4,"NS(=O)(=O)c1cccc(OC[C@@H](O)CNC2COC3(CCN(S(=O)(=O)c4ccc5ccccc5c4)CC3)C2)c1 (stereo partly drawn) [Compound 306, 3-((2S)-2-hydroxy-3-(8-(naphthalen-2-ylsulfonyl)-1-oxa-8-azaspiro[4.5]decan-3-ylamino)propoxy)benzenesulfonamide]"
9,17.4,"CNS(=O)(=O)c1cccc(OC[C@@H](O)CNC2COC3(CCN(S(=O)(=O)c4ccccc4Br)CC3)C2)c1 (stereo partly drawn) [Compound 54, 3-((2S)-3-(8-(2-bromophenylsulfonyl)-1-oxa-8-azaspiro[4.5]decan-3-ylamino)-2-hydroxypropoxy)-N-methylbenzenesulfonamide]"
10,36.9,"CNS(=O)(=O)c1cccc(OC[C@@H](O)CNC2COC3(CCN(S(=O)(=O)c4cccc(-c5cn(C)nc5C)c4)CC3)C2)c1 (stereo partly drawn) [Compound 68, 3-((2S)-3-(8-(3-(1,3-dimethyl-1H-pyrazol-4-yl)phenylsulfonyl)-1-oxa-8-azaspiro[4.5]decan-3-ylamino)-2-hydroxypropoxy)-N-methylbenzenesulfonamide]"
11,13.8,"CNS(=O)(=O)c1cccc(OC[C@@H](O)CNC2COC3(CCN(S(=O)(=O)c4cccc(OC)c4)CC3)C2)c1 (stereo partly drawn) [Compound 27, 3-((2S)-2-hydroxy-3-(8-(3-methoxyphenylsulfonyl)-1-oxa-8-azaspiro[4.5]decan-3-ylamino)propoxy)-N-methylbenzenesulfonamide]"
12,74.7,"CCCn1cc(S(=O)(=O)N2CCC3(CC2)C[C@@H](NC[C@H](O)COc2cccc(S(N)(=O)=O)c2)CO3)c(=O)c2ccccc21 [Compound 551, 3-((S)-2-hydroxy-3-((R)-8-(4-oxo-1-propyl-1,4-dihydroquinolin-3-ylsulfonyl)-1-oxa-8-azaspiro[4.5]decan-3-ylamino)propoxy)benzenesulfonamide]"
13,7.47,"CNS(=O)(=O)c1cccc(OC[C@@H](O)CNC2COC3(CCN(S(=O)(=O)c4ccc5c(c4)CCCC5)CC3)C2)c1 (stereo partly drawn) [Compound 16, 3-((2S)-2-hydroxy-3-(8-(5,6,7,8-tetrahydronaphthalen-2-ylsulfonyl)-1-oxa-8-azaspiro[4.5]decan-3-ylamino)propoxy)-N-methylbenzenesulfonamide]"
